# Data published in patent publication US20130115286A1, “ORAL ADMINISTRATION FORMS FOR CONTROLLED RELEASE OF RIFAMPICIN FOR THE TREATMENT OF BACTERIAL INFECTIONS AND INFLAMMATORY DISEASES OF THE GASTROINTESTINAL TRACT” (priority 2010, published 2013).
# Columns and labels:
# [1] = Stability tests on rifampicin in acid, neutral and basic environments (FIG. 1); type: physicochemical
# [2] = cited from earlier work
# [3] = determined by the intestinal pH values; cited from earlier work
# [4] = oral, 600 mg, healthy volunteers; cited from earlier work
# [5] = in vivo, cited from earlier work
compound,measurement,setting,value
CO[C@H]1/C=C/O[C@@]2(C)Oc3c(C)c(O)c4c(O)c(c(/C=N/N5CCN(C)CC5)c(O)c4c3C2=O)NC(=O)/C(C)=C\C=C\[C@H](C)[C@H](O)[C@@H](C)[C@@H](O)[C@@H](C)[C@H](OC(C)=O)[C@@H]1C [rifampicin],stability,[1]; acid environment,less stable
same,stability,[1]; neutral and weakly alkaline environments,sufficiently stable
same,pKa,[2],1.7
same,solubility in the intestine,[3],1000 to 6000 µg/mL
same,maximum blood concentration (Cmax),[4],9000 ng/mL
same,dose eliminated in the urine,[5]; po,approx. 20 % of the dose
same,amount present in the plasma relative to that eliminated by the renal route,[5],5 times
